Results on two compounds are retold here after article PMC12693167, “Design, Synthesis and Anticancer Activity of 6-Substituted-1-(3,4,5-trimethoxyphenyl)-1H-indole Against Tubulin Polymerisation” (Molecules, 2025).

Assay [1] concerns B16F10 melanoma tumors in BALB/c mice. In words: In vivo antitumor efficacy, subcutaneous B16-F10 melanoma model. Further details: species or system mouse. To be noted: paclitaxel 10 mg/kg i.p. once daily, 14 days, from tumor weight. The procedure: The in vivo antitumor activity of compound 3g was evaluated using a mouse melanoma tumor model in BALB/c mice. Tumors were established by subcutaneous inoculation of B16F10 cells, and treatment was initiated when tumors reached a measurable size. Mice were administered vehicle control, paclitaxel (PTX, 10 mg/kg), or compound 3g (20 and 50 mg/kg) via intraperitoneal injection once daily for 14 consecutive days.
All animal procedures were approved by the Animal Ethics Committee of the Naval Medical University (permit number: EC11-055). Male BALB/c mice (6–8 weeks old, average initial body weight approximately 18–20 g) were purchased from Shanghai SLAC Laboratory Animal Co., Ltd. The inhibitory effect of compound 3g was evaluated using a subcutaneous B16-F10 melanoma xenograft model. Log-phase B16F10 cells were suspended in PBS and subcutaneously injected into mice (200 μL containing 8 × 10^5 cells per mouse) to establish tumors. Mice were randomly divided into control and treatment groups (n = 8). Compound 3g and paclitaxel were dissolved in a vehicle consisting of DMSO:PEG:Tween-80:saline (v/v/v/v, 5:35:10:50) to the desired concentrations. Treatments (paclitaxel, 10 mg/kg; compound 3g, 20 and 50 mg/kg, doses calculated on a body-weight basis) and vehicle were administered once daily via intraperitoneal injection for 14 consecutive days. Body weights were monitored throughout the study to assess acute toxicity. Tumor volumes were measured using calipers and calculated with the formula: a × b^2 × 0.5, where a and b represent the larger and smaller tumor diameters, respectively. On day 14, mice were sacrificed and tumors were excised and weighed. […] Major organs (liver and kidneys) were collected, fixed in 4% paraformaldehyde, processed into paraffin sections, stained with hematoxylin and eosin (H&E), and examined microscopically.
Murine melanoma B16-F10 xenograft tumors were established in mice, which were then administered vehicle, PTX (10 mg/kg per day), compound 3g (20 mg/kg per day), and compound 3g (50 mg/kg per day) for 14 days. […]

In assay [2] the target is T1, Porcine brain tubulin protein (Sus scrofa, UniProt P02554).
T1 construct: Porcine brain tubulin protein was dissolved in EM buffer; from tissue; host or cells: porcine brain
In words: In vitro tubulin polymerization assay. The class given is biochemical. As for the experimental part: The ability of compound 3g to disrupt microtubule dynamics was assessed using an in vitro tubulin polymerization assay.
Porcine brain tubulin protein was dissolved in EM buffer containing 5% glycerol (80 mM PIPES, 2 mM GTP, 2 mM MgCl2, and 0.5 mM EGTA, pH 6.9). Compounds were diluted in EM buffer to final concentrations of 50, 25, 10, 5, and 2.5 μM and added to a pre-warmed 384-well plate, followed by pre-incubation at 37 °C. Subsequently, 14 μL of the tubulin-GTP mixture was added to each well containing the test compounds. Tubulin polymerization was monitored by measuring absorbance at 340 nm every minute for 60 min. […] Each assay was performed in triplicate.
Absorbance at 340 nm was determined every 1 min.

T1 sequence (P02554 whole entry): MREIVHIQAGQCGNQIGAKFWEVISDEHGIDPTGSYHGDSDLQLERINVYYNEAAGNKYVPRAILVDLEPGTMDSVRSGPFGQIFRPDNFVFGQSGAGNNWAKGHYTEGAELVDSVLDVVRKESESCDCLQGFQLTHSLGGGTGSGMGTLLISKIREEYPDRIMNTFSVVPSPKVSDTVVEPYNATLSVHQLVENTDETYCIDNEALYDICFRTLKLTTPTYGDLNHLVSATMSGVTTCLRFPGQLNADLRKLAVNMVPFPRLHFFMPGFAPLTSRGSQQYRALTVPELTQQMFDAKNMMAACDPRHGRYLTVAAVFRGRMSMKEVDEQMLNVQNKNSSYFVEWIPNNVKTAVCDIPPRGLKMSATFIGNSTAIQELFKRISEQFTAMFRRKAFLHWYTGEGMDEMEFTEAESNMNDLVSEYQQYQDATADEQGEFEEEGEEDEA
T1 sequence (P02550 whole entry partner): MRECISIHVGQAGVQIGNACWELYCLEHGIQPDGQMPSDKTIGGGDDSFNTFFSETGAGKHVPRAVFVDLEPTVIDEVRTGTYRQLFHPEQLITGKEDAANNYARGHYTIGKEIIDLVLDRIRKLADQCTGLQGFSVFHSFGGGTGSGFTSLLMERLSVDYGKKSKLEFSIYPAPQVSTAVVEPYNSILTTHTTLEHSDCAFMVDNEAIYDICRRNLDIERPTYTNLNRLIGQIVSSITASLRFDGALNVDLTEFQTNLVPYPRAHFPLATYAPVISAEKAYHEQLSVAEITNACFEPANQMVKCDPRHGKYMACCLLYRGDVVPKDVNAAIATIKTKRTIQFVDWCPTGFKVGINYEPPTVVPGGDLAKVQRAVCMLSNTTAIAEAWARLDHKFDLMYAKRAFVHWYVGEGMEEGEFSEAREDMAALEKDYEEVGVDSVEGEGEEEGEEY

In the case of `CC(=O)O[C@H]1C(=O)[C@@]2(C)[C@H]([C@H](OC(=O)c3ccccc3)[C@]3(O)C[C@H](OC(=O)[C@H](O)[C@@H](NC(=O)c4ccccc4)c4ccccc4)C(C)=C1C3(C)C)[C@]1(OC(C)=O)CO[C@@H]1C[C@@H]2O` [paclitaxel, reference compound], the “tumor growth inhibition (TGI)” value in assay [1] was determined as 59.84%. In addition, the “effect on tubulin polymerization (positive controls)” value in assay [2] (10 μM) is given as “stabilizing”.

`COc1cc(-n2ccc3ccc(Cl)cc32)cc(OC)c1OC` [H1]: the IC50 – broadly, the concentration that gives 50% inhibition – in assay [2] (read-out: IC50, inhibitory effect on tubulin polymerization) was found to be 101 µM.
